Data set [1] deals with L929 cells. Kind of data set: MTT assay, prodrug activation and cytotoxicity in L929 cells. In kind it is cell-based, mouse. The note with it: for IC50: Mus musculus, MTT, mean ± SEM (n = 3); for prodrug activation on L929 cells: L929 cells pre-treated with azido-sialic acid derivatives 4 and 5, 50 μM; for IC50 on L929 cells relative to MCF-7 cells: non-engineered cells, L929 IC50 higher than MCF-7 IC50. As for the experimental part:
(§1) The in vitro prodrug activation and anticancer activity of compounds 10 and 12 was determined using the MTT assay. MCF-7 cells or L929 cells were incubated with 50 μM Ac4ManNAz-, 4-, and 5-containing RPMI medium or 50 μM Ac4ManNAz-, 4-, and 5-containing DMEM medium, respectively for 72 h at 37 °C CO2 incubator as described above. Then, the engineered and non-engineered MCF-7 cells or L929 cells were seeded on 96-well plates (4 × 10^4 cells per mL) or (1 × 10^5 cells per mL), respectively and incubated at 37 °C for 24 h. Cells were then treated with a range of concentration of both prodrugs 10 and 12 (0.001–10 μM) and incubated for 72 h. After incubation, the treatments-containing medium was removed and 20 μL of 0.5 mg mL^−1 MTT in PBS solution was added in each well for 4 h. The resulting formazan crystals were dissolved in 100 μL of DMSO after carefully removing the MTT solution. The absorbance was recorded at 570 nm by InfiniteF50 TECAN microplate reader. The cells without any treatment were used as the control. Assays were performed in three replicates, which the statistical mean and standard deviation were used to estimate the cell viability. IC50 (inhibitory concentration to induce 50% cell death) values were determined using GraphPad Prism 8.0.2 according to the fitted data.
A general note: Formazan colour is commonly taken as a measure of viable cells.

In data set [2] the test system is MCF-7 cells. The experiment in a line: MTT assay, prodrug activation and anticancer activity in MCF-7 cells. The note with it: for IC50: Homo sapiens, MTT, mean ± SEM (n = 3). Type of data set: cell-based, human. Here is the method: as §1
Data set [3] relates to MCF-7 cells. The experiment in a line: Azide-reporter generation by confocal microscopy (DBCO-Cy5 MFI), MCF-7. In kind it is cell-based, human. The note with it: breast cancer MCF-7 versus normal fibroblast L929. As for the experimental part: (§2) For azide generation analysis in breast cancer cells and mouse fibroblasts, MCF-7 cells were cultured in 5% fetal bovine serum and RPMI 1640 medium and L929 cells were cultured in 10% fetal bovine serum and DMEM medium at 37 °C in a 5% CO2 incubator.
(§3) For fluorescence quantification, 4 × 10^4 cell per mL of MCF-7 and 1 × 10^4 cell per mL of L929 cells were seeded into a 35 mm covered glass-bottom dishes and incubated with 50 μM Ac4ManNAz-, 4-, and 5-containing medium for 72 h at 37 °C CO2 incubator, respectively. Then to visualize the azide groups, the sugar-containing medium was removed and the cells were washed twice with PBS and further incubated with 20 μM dibenzylcyclooctyne-conjugated Cy5 (DBCO-Cy5)-containing fresh medium for 1 h at 37 °C. Then, the cells were washed twice with PBS and fixed with formaldehyde fixative for 10 min in dark conditions. After fixation, the cells were washed twice with PBS and mounted with 4,6-diamidino-2-phenylindole (DAPI) (5 μg mL^−1). The cells were observed using a confocal laser microscope (Nikon A1R Confocal with 405, 445, 488, 514, 561 and 640 nm lasers). The mean fluorescence intensity was analyzed using ImageJ software and the data were represented as absolute values.

The nature of data set [4]: Cell viability of L929 cells after azide-modified sugars (MTT). Type of data set: cell-based. The note with it: mouse, L929 fibroblast cells, 50 μM sugar, no change compared to control.
For data set [5], the system named is L929 cells. Kind of data set: Azide-reporter generation by Western blotting, L929. Type of data set: cell-based, mouse. The note with it: 50 μM, 72 h; lysates reacted with phosphine-PEG3-biotin. Here is the method: as §2
To analyse the engineered azide groups in glycoproteins in vitro, 4 × 10^4 cell per mL of MCF-7 and 1 × 10^4 cell per mL of L929 cells were seeded into 6-well plates and incubated with 50 μM Ac4ManNAz-, 4-, and 5-containing medium for 72 h at 37 °C CO2 incubator, respectively. Cells were then washed twice with ice cold PBS and lysed using ice cold RIPA buffer (Thermo Fisher Scientific, UK) with 1% protease inhibitor cocktail. Lysates were centrifuged at 12 000 rpm for 10 min at 4 °C to remove cell debris. The total protein of each sample was quantified by DC assay (Bio-rad DC Protein Assay Kit, Bio-rad, UK). The lysates were then incubated with 0.5 μM phosphine-PEG3-biotin (Thermo Fisher Scientific, UK) for 12 h at room temperature. The proteins from each sample were mixed with 1× sodium dodecyl sulfate (SDS) gel-loading buffer (125 mol L^−1 Tris, pH 6.8, 5% glycerol, 2% SDS, 1% β-mercaptoethanol, and 0.006% bromophenol blue) and boiled for 5 min. Then, 20 μg of proteins was separated by 8% SDS – polyacrylamide gel electrophoresis and transferred onto PVDF membranes. The membranes were blocked for 1.5 h at room temperature in 0.5% bovine serum albumin (BSA) containing 1× TBST solution (10 mol L^−1 Tris, pH 7.4, 100 mol L^−1 NaCl, and 0.1% Tween 20). Then, the membranes were incubated with streptavidin-HRP (Cell Signalling Technology, UK) containing 1× TBST solution for overnight at 4 °C. Next day, the membranes were washed three times using 1× TBST and protein band was detected with an ECL system.

For data set [6], the system named is L929 cells. Kind of data set: Azide-reporter generation by confocal microscopy (DBCO-Cy5 MFI), L929. Type of data set: cell-based, mouse. The note with it: 50 μM, 72 h; DBCO-Cy5 20 μM 1 h. As for the experimental part: as §2, §3
Setting [7] is: L929, 72 h, non-engineered L929 cells, 72 h.
[8] abbreviates: MCF7, 72 h, non-engineered MCF-7 cells, 72 h.
Setting [9] is: L929, 4-engineered L929 cells (50 μM 4, 72 h pre-treatment).
Where [10] appears, read: L929, 5-engineered L929 cells (50 μM 5, 72 h pre-treatment).
Setting [11] is: L929, Ac4ManNAz-engineered L929 cells (50 μM, 72 h pre-treatment).
The mark [12] stands for this setting: MCF7, 4-engineered MCF-7 cells (50 μM 4, 72 h pre-treatment).
The mark [13] stands for this setting: MCF7, 5-engineered MCF-7 cells (50 μM 5, 72 h pre-treatment).
The mark [14] stands for this setting: MCF7, Ac4ManNAz-engineered MCF-7 cells (50 μM, 72 h pre-treatment).

SMILES strings stand for the structures.

Data on 6 molecules can be found in publication PMC10429771, “Bioorthogonal activation of prodrugs, for the potential treatment of breast cancer, using the Staudinger reaction” (RSC Medicinal Chemistry, 2023).

In the case of `COc1cccc2c1C(=O)c1c(O)c3c(c(O)c1C2=O)C[C@@](O)(C(=O)CO)C[C@@H]3O[C@H]1C[C@H](N)[C@H](O)[C@H](C)O1` [Doxorubicin 11, doxorubicin, reference compound], the half-inhibitory concentration (IC50) (commonly the concentration at which inhibition is half-maximal) was 2.04 ± 0.009 µM in the data set with L929 cells [1] (setting [7]) and 0.2 ± 0.03 µM in the data set with MCF-7 cells [2] (setting [8]).
On to `CC(=O)N[C@H]1[C@H]([C@H](O)[C@H](O)CN=[N+]=[N-])OC(O)(C(=O)O)C[C@@H]1O` (stereo in doubt) [Compound 4, 9-Azido-5-acetamido-3,5,9-trideoxy-β-D-glycero-D-galacto-2-nonulosonic acid], for which the “higher azide expression on MCF-7 cells versus L929 cells” value with MCF-7 cells [3] was ~17 fold. Besides, in data set [4], the viability (as a rule, a read-out of living cells in per cent, often relative to untreated cells) at 50 µM came to 92.4 ± 1.6%. In addition, the “azide incorporation in L929 cells (Western blotting)” value (“azide incorporation in L929 cells” below) with L929 cells [5] was “did not show any azide-reporter generation”. Also, the “fluorescence in L929 cells (confocal)” value in the data set on L929 cells [6] is reported as “did not show any fluorescence”.
For `COc1cccc2c1C(=O)c1c(O)c3c(c(O)c1C2=O)C[C@@](O)(C(=O)CO)C[C@@H]3OC1C[C@@H](NC(=O)c2ccccc2P(c2ccccc2)c2ccccc2)[C@@H](O)[C@@H](C)O1` (stereo partly drawn) [Dox-prodrug 12, 2-(Diphenylphosphino)-N-((2R,3R,4R)-3-hydroxy-2-methyl-6-(((1S,3S)-3,5,12-trihydroxy-3-(2-hydroxyacetyl)-10-methoxy-6,11-dioxo-1,2,3,4,6,11-hexahydrotetracen-1-yl)oxy)tetrahydro-2H-pyran-4-yl)benzamide], the “prodrug activation on L929 cells” value in the data set on L929 cells [1] is reported as “No activation”. The IC50 in the data set on L929 cells [1] (setting [9]) worked out at 11.2 ± 1.04 µM; with L929 cells [1] (setting [10]), 10.7 ± 0.22 µM; in the data set with L929 cells [1] (setting [7]), 11.3 ± 0.23 µM; with L929 cells [1] (setting [11]), 7.7 ± 0.26 µM; with MCF-7 cells [2] (setting [12]), 0.5 ± 0.03 µM; in the data set on MCF-7 cells [2] (setting [13]) it was 1.6 ± 0.09 µM. Moreover, the concentration for half-maximal inhibition (IC50) came out at 4.6 ± 0.19 µM with MCF-7 cells [2] (setting [8]) and 0.2 ± 0.01 µM with MCF-7 cells [2] (setting [14]). The “IC50 on L929 cells relative to MCF-7 cells” value with L929 cells [1] is listed as “approximately 2 fold”. Also, the “decrease in potency of prodrug versus doxorubicin” value in the data set on MCF-7 cells [2] (non-engineered MCF-7 cells, IC50 of prodrug 12 vs doxorubicin 11) is given as “more than 20 fold”.
As for `O=C(Nc1ccc(N(CCCl)CCCl)cc1)c1ccccc1P(c1ccccc1)c1ccccc1` [N-mustard prodrug 10, N-(4-(Bis(2-chloroethyl)amino)phenyl)-2-(diphenylphosphaneyl)benzamide], the “prodrug activation on L929 cells” value in the data set with L929 cells [1] is reported as “No activation”. The IC50 worked out at 29.9 ± 0.69 µM with L929 cells [1] (setting [9]); 29.7 ± 1.2 µM in the data set on L929 cells [1] (setting [10]); 31.4 ± 0.44 µM in the data set with L929 cells [1] (setting [7]); 21.1 ± 0.58 µM in the data set on L929 cells [1] (setting [11]); 2.1 ± 1.11 µM with MCF-7 cells [2] (setting [12]); 9.3 ± 0.63 µM with MCF-7 cells [2] (setting [13]). The IC50 was determined as 20.8 ± 1.27 µM with MCF-7 cells [2] (setting [8]) and 0.6 ± 0.08 µM with MCF-7 cells [2] (setting [14]). In addition, the “IC50 on L929 cells relative to MCF-7 cells” value in the data set on L929 cells [1] is “approximately 2 fold”.
Regarding `CC(=O)N[C@H]1[C@H]([C@H](OC(C)=O)[C@@H](CN=[N+]=[N-])OC(C)=O)O[C@@](OC(C)=O)(C(=O)O)C[C@@H]1OC(C)=O` [Compound 5, 9-Azido-5-acetamido-2,4,7,8-tetracetyl-3,5,9-trideoxy-β-D-glycero-D-galacto-2-nonulosonic acid], in the data set with MCF-7 cells [3], the “higher azide expression on MCF-7 cells versus L929 cells” value was ~17 fold. In addition, the viability at 50 µM in data set [4] was found to be 122 ± 5.5%. In addition, in the data set with L929 cells [5], the “azide incorporation in L929 cells” value was “did not show any azide-reporter generation”. Further, the “fluorescence in L929 cells (confocal)” value in the data set with L929 cells [6] was “did not show any fluorescence”.
Consider `CC(=O)OC[C@H]1OC(OC(C)=O)[C@@H](NC(=O)CN=[N+]=[N-])[C@@H](OC(C)=O)[C@@H]1OC(C)=O` (stereo partly drawn) [Ac4ManNAz, Tetra-O-acetyl azidomannosamine, reference compound], for which the viability at 50 µM in data set [4] came out at 97.5 ± 5.2%. The “azide incorporation in L929 cells” value in the data set with L929 cells [5] is reported as “caused the azide incorporation”.
